# According to patent publication US9144595B2, “APLs for treating arthritis” (University of Tennessee Research Foundation, priority 2009, dated 2015):
# Where “and” joins values, the source holds several entries; their conditions need not be identical. Identical values can stand only once.
# Assays:
# RA CD4+ T cells = assay: Intracellular IFNγ and IL-17 in CD4+ T cells of CII-stimulated RA PBMC (flow cytometry); format: cell-based, human; conditions: A12 10 μg/ml co-incubated with CII 50 μg/ml, 5 days; one RA patient; FIG. 2
# Excerpt: We assessed the effect of APL A12 added to cultures of RA PBMC stimulated with α1(II) on CD4^+ T cells expression of IFNγ and IL-17 as shown in FIG. 2.
# The flow use an IFNγ scale on y-axis 295 and IL-17 on x-axis 290, 291, 292, 293, 294 (log scale). The results of the flow are shown for Control 210 including IFNγ+IL-17 flow 270 and IFNγ Control flow 285. The results of the flow are shown for CII+A12 220 including IFNγ+IL-17 flow 265 and IFNγ Control flow 280. The results of the flow are shown for CII 230 including IFNγ+IL-17 flow 260 and IFNγ Control flow 275. Columns 240, 250 represent IFNγ+IL-17 flow and IFNγ Control flow, respectively. Peripheral blood lymphocytes were placed in culture (2×10^6/well, 24 well plate) and stimulated with either CII alone (50 μg/ml), CII+A12 peptide (10 μg/ml), or PBS for 5 days. […] Cells were then collected and analyzed by flow cytometry using fluorochrome-labeled antibodies specific for CD4, CD8, CD69, IL-17 and IFNγ. […] Data are based on a minimum of 75,000 events analyzed. The IFNγ Controls (right panels) are based on the fluorescence minus one (FMO) approach whereby the antibody of IFNγ is omitted from these samples to make sure that no fluorochrome was spilling over into the IFNγ detector.
# DR1 Transgenic mice = assay: Acute toxicity study of HC Peptide 1 in DR1 transgenic mice; format: in vivo, mouse; conditions: for Weight of Mice / Weight of Livers / Weight of Spleens: individual mice, HC Peptide 1 (100 μg) Fed; for Weight of Livers / Weight of Spleens: at sacrifice
# Experimental: Eight DR1 transgenic mice (C57 BL/10 containing a human transgene for DR1) were studied in these acute toxicity studies. The four female litter mates were nine weeks old at the time the studies were initiated. Two female mice and two male mice were randomly assigned to the control group and two female and two male mice were randomly assigned to be treated with HC Peptide 1. Mice were gavaged once daily for seven days with 100 μl IV saline containing 100 μg HC Peptide1. Mice were weighed before treatment and every two days. Mice were examined daily for general healthy appearance, glossy coat, ruffling of hair, lethargy, ad lib behavior, shivering or vigor. At sacrifice on day 7, blood was collected for complete blood count and chemistries were performed by the Clinical Pathology Services, Charles River Laboratories, 251 Ballardvale Street, Wilmington, Mass. 01887. Food and water consumption were monitored in each cage. Liver and spleen were weighed at sacrifice of each mouse. Sections of liver, spleen, kidney, heart, lung, stomach, and small and large intestine, were placed in 10% formalin and processed for routine H and E sections by the Histology Laboratory at the Memphis VAMC. Mice were housed in an IACUC approved facility with 12 hours light and 12 hours darkness.
# Changes in body weight over the six days mice were gavaged with 100× the human HC Peptide 1 dose were similar to mice gavaged with IV saline (See Table IX). Water and food consumption were similar between HC Peptide 1 treated and mice gavaged with IV saline (Table X). Upon sacrifice at day 7, the weight of livers and spleens were similar between mice gavaged with 100× the human dose of HC Peptide 1 and mice gavaged with IV saline (See Table XI). The complete blood counts (CBC) after 6 days gavage of DRB1*0401 transgenic mice with 100× the human HC Peptide 1 dose were similar to litter mates gavaged with IV saline. Plasma chemistries were similar in the […] transgenic mice gavaged with 100× the human dose of HC Peptide 1 compared to litter mates gavaged with IV saline.
# [1] = Cage 1 Male (two mice), Days 1-2
# [2] = Cage 1 Male (two mice), Days 3-4
# [3] = Cage 1 Male (two mice), Days 5-6
# [4] = Cage 1 Male (two mice), sum of Days 1-6 (unlabelled line)
# [5] = Cage 3 Female (two mice), Days 1-2
# [6] = Cage 3 Female (two mice), Days 3-4
# [7] = Cage 3 Female (two mice), Days 5-6
# [8] = Cage 3 Female (two mice), sum of Days 1-6 (unlabelled line)
sequence,measurement,setting,value
LGPKGQTGEBGIAGAKGDQGPKGEBGPA [APL A12],decrease in the number of IFNγ-producing T cells,RA CD4+ T cells,75%
same,reduction in IL-17 producing T cells,RA CD4+ T cells,42%
same,Plasma chemistries,DR1 Transgenic mice; 100× the human dose vs IV saline,similar
same,general appearance or behavior,"DR1 Transgenic mice; 100× the proposed highest human dose by gavage, compared to littermates gavaged with IV saline",no differences
same,Chow Consumed,DR1 Transgenic mice; [1],13.3 GMS
same,Water Consumed,DR1 Transgenic mice; [1],15 MI
same,Chow Consumed,DR1 Transgenic mice; [2],10.5 GMS
same,Water Consumed,DR1 Transgenic mice; [2],10 MI
same,Chow Consumed,DR1 Transgenic mice; [3],14.4 GMS
same,Water Consumed,DR1 Transgenic mice; [3],15 MI
same,Chow Consumed,DR1 Transgenic mice; [4],38.2 GMS
same,Water Consumed,DR1 Transgenic mice; [4],40 MI
same,Chow Consumed,DR1 Transgenic mice; [5],15.7 GMS
same,Water Consumed,DR1 Transgenic mice; [5],12.5 MI
same,Chow Consumed,DR1 Transgenic mice; [6],14.2 GMS
same,Water Consumed,DR1 Transgenic mice; [6],9.5 MI
same,Chow Consumed,DR1 Transgenic mice; [7],15.3 GMS
same,Water Consumed,DR1 Transgenic mice; [7],13 MI
same,Chow Consumed,DR1 Transgenic mice; [8],45.2 GMS
same,Water Consumed,DR1 Transgenic mice; [8],35 MI
same,Weight of Mice,"DR1 Transgenic mice; Day 2, female mice",21.6 GMS and 19.4 GMS
same,Weight of Mice,"DR1 Transgenic mice; Day 2, male mice",22.4 GMS and 21.0 GMS
same,Weight of Mice,"DR1 Transgenic mice; Day 4, female mice",21.0 GMS and 18.6 GMS
same,Weight of Mice,"DR1 Transgenic mice; Day 4, male mice",21.6 GMS and 20.3 GMS
same,Weight of Mice,"DR1 Transgenic mice; Day 6, female mice",21.9 GMS and 19.3 GMS
same,Weight of Mice,"DR1 Transgenic mice; Day 6, male mice",22.7 GMS and 20.9 GMS
same,Weight of Mice,"DR1 Transgenic mice; Time 0, female mice",21.6 GMS and 18.7 GMS
same,Weight of Mice,"DR1 Transgenic mice; Time 0, male mice",22.4 GMS and 20.8 GMS
same,Weight of Livers,DR1 Transgenic mice; female mice,0.99 GMS and 0.87 GMS
same,Weight of Spleens,DR1 Transgenic mice; female mice,0.065 GMS and 0.07 GMS
same,Weight of Livers,DR1 Transgenic mice; male mice,1.14 GMS and 0.9 GMS
same,Weight of Spleens,DR1 Transgenic mice; male mice,0.09 GMS and 0.06 GMS
same,weight of livers and spleens,"DR1 Transgenic mice; sacrifice at day 7, 100× the human dose vs IV saline",similar
same,Water and food consumption,DR1 Transgenic mice; vs mice gavaged with IV saline,similar
